PubChem BioAssay (NCI)
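GI50 marks 50% less growth. Definition used: TGI = concentration required for complete inhibition of growth.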

Tests used:
Test in all cases: NCI tumour cell line growth inhibition, 384-well format
DU-145 prostate = system: DU-145 prostate
A549 NSCLC = system: A549 NSCLC
T-47D breast = system: T-47D breast
TK-10 renal = system: TK-10 renal
OVCAR-8 ovarian = system: OVCAR-8 ovarian
NCI/ADR-RES ovarian = system: NCI/ADR-RES ovarian
KM12 colon = system: KM12 colon
OVCAR-5 ovarian = system: OVCAR-5 ovarian
A498 renal = system: A498 renal
RPMI-8226 leukemia = system: RPMI-8226 leukemia
MOLT-4 leukemia = system: MOLT-4 leukemia
SK-MEL-2 melanoma = system: SK-MEL-2 melanoma
PC-3 prostate = system: PC-3 prostate
HCT-15 colon = system: HCT-15 colon
MALME-3M melanoma = system: MALME-3M melanoma
SNB-19 CNS = system: SNB-19 CNS
ACHN renal = system: ACHN renal
LOX IMVI melanoma = system: LOX IMVI melanoma
K-562 leukemia = system: K-562 leukemia
M14 melanoma = system: M14 melanoma
OVCAR-3 ovarian = system: OVCAR-3 ovarian
SK-MEL-5 melanoma = system: SK-MEL-5 melanoma
MDA-MB-231 breast = system: MDA-MB-231 breast
HL-60(TB) leukemia = system: HL-60(TB) leukemia
NCI-H322M lung = system: NCI-H322M lung
UACC-62 melanoma = system: UACC-62 melanoma
HCT-116 colon = system: HCT-116 colon
SW-620 colon = system: SW-620 colon
U251 glioblastoma = system: U251 glioblastoma
UACC-257 melanoma = system: UACC-257 melanoma
HT29 colon = system: HT29 colon
NCI-H522 lung = system: NCI-H522 lung
SR leukemia = system: SR leukemia
NCI-H460 NSCLC = system: NCI-H460 NSCLC
NCI-H226 lung = system: NCI-H226 lung
BT-549 breast = system: BT-549 breast
MDA-MB-435 melanoma = system: MDA-MB-435 melanoma
HOP-62 NSCLC = system: HOP-62 NSCLC
SF-539 CNS = system: SF-539 CNS
RXF 393 renal = system: RXF 393 renal
IGROV1 ovarian = system: IGROV1 ovarian
786-0 renal = system: 786-0 renal
HOP-92 NSCLC = system: HOP-92 NSCLC
SF-295 CNS = system: SF-295 CNS
CCRF-CEM leukemia = system: CCRF-CEM leukemia
SK-OV-3 ovarian = system: SK-OV-3 ovarian
OVCAR-4 ovarian = system: OVCAR-4 ovarian
CAKI-1 renal = system: CAKI-1 renal
MCF7 breast = system: MCF7 breast
HCC-2998 colon = system: HCC-2998 colon
SF-268 CNS = system: SF-268 CNS
SN12C renal = system: SN12C renal
SK-MEL-28 melanoma = system: SK-MEL-28 melanoma
NCI-H23 lung = system: NCI-H23 lung
MDA-MB-468 breast = system: MDA-MB-468 breast
UO-31 renal = system: UO-31 renal
COLO 205 colon = system: COLO 205 colon

## CCN(c1cc(C#CCN2CCOCC2)cc(C(=O)NCc2c(C)cc(C)[nH]c2=O)c1C)C1CCC(N(C)CCOC)CC1 (centres undefined)
DU-145 prostate
  GI50: > 100 µM
  TGI: > 100 µM
A549 NSCLC
  GI50: > 100 µM
  TGI: > 100 µM
T-47D breast
  GI50: > 100 µM
  TGI: > 100 µM
TK-10 renal
  GI50: > 100 µM
  TGI: > 100 µM
OVCAR-8 ovarian
  GI50: > 100 µM
  TGI: > 100 µM
NCI/ADR-RES ovarian
  GI50: > 100 µM
  TGI: > 100 µM
KM12 colon
  GI50: > 100 µM
  TGI: > 100 µM
OVCAR-5 ovarian
  GI50: > 100 µM
  TGI: > 100 µM
A498 renal
  GI50: 91.1 µM
  TGI: > 100 µM
RPMI-8226 leukemia
  GI50: 0.0254 µM
  TGI: 0.193 µM
MOLT-4 leukemia
  GI50: 1.45 µM
  TGI: 3.55 µM
SK-MEL-2 melanoma
  GI50: 72.9 µM
  TGI: > 100 µM
PC-3 prostate
  GI50: > 100 µM
  TGI: > 100 µM
HCT-15 colon
  GI50: > 100 µM
  TGI: > 100 µM
MALME-3M melanoma
  GI50: > 100 µM
  TGI: > 100 µM
SNB-19 CNS
  GI50: > 100 µM
  TGI: > 100 µM
ACHN renal
  GI50: > 100 µM
  TGI: > 100 µM
LOX IMVI melanoma
  GI50: > 100 µM
  TGI: > 100 µM
K-562 leukemia
  GI50: > 100 µM
  TGI: > 100 µM
M14 melanoma
  GI50: > 100 µM
  TGI: > 100 µM
OVCAR-3 ovarian
  GI50: 40.6 µM
  TGI: > 100 µM
SK-MEL-5 melanoma
  GI50: > 100 µM
  TGI: > 100 µM
MDA-MB-231 breast
  GI50: 24.1 µM
  TGI: > 100 µM
HL-60(TB) leukemia
  GI50: > 100 µM
  TGI: > 100 µM
NCI-H322M lung
  GI50: > 100 µM
  TGI: > 100 µM
UACC-62 melanoma
  GI50: 51.3 µM
  TGI: > 100 µM
HCT-116 colon
  GI50: > 100 µM
  TGI: > 100 µM
SW-620 colon
  GI50: > 100 µM
  TGI: > 100 µM
U251 glioblastoma
  GI50: > 100 µM
  TGI: > 100 µM
UACC-257 melanoma
  GI50: > 100 µM
  TGI: > 100 µM
HT29 colon
  GI50: > 100 µM
  TGI: > 100 µM
NCI-H522 lung
  GI50: 32.8 µM
  TGI: > 100 µM
SR leukemia
  GI50: 82.8 µM
  TGI: > 100 µM
NCI-H460 NSCLC
  GI50: > 100 µM
  TGI: > 100 µM
NCI-H226 lung
  GI50: 55.9 µM
  TGI: > 100 µM
BT-549 breast
  GI50: > 100 µM
  TGI: > 100 µM
MDA-MB-435 melanoma
  GI50: > 100 µM
  TGI: > 100 µM
HOP-62 NSCLC
  GI50: 67.2 µM
  TGI: > 100 µM
SF-539 CNS
  GI50: > 100 µM
  TGI: > 100 µM
RXF 393 renal
  GI50: 3.37 µM
  TGI: > 100 µM
IGROV1 ovarian
  GI50: > 100 µM
  TGI: > 100 µM
786-0 renal
  GI50: > 100 µM
  TGI: > 100 µM
HOP-92 NSCLC
  GI50: 2.55 µM
  TGI: 34.7 µM
SF-295 CNS
  GI50: > 100 µM
  TGI: > 100 µM
CCRF-CEM leukemia
  GI50: 4.63 µM
  TGI: 21.4 µM
SK-OV-3 ovarian
  GI50: > 100 µM
  TGI: > 100 µM
OVCAR-4 ovarian
  GI50: 51.4 µM
  TGI: > 100 µM
CAKI-1 renal
  GI50: > 100 µM
  TGI: > 100 µM
MCF7 breast
  GI50: > 100 µM
  TGI: > 100 µM
HCC-2998 colon
  GI50: 8.42 µM
  TGI: 92.5 µM
SF-268 CNS
  GI50: > 100 µM
  TGI: > 100 µM
SN12C renal
  GI50: > 100 µM
  TGI: > 100 µM
SK-MEL-28 melanoma
  GI50: > 100 µM
  TGI: > 100 µM
NCI-H23 lung
  GI50: > 100 µM
  TGI: > 100 µM
MDA-MB-468 breast
  GI50: 58.4 µM
  TGI: > 100 µM
UO-31 renal
  GI50: > 100 µM
  TGI: > 100 µM
COLO 205 colon
  GI50: > 100 µM
  TGI: > 100 µM
